Results from patent US9656971B2, “COMT inhibitors” (Hoffmann-La Roche Inc., priority 2012, dated 2017).
Read-outs that look alike come from different tables or passages of the source.

Molecular target: T1, Rec. human COMT (Homo sapiens, UniProt P21964)
T1 sequence (P21964 1-271): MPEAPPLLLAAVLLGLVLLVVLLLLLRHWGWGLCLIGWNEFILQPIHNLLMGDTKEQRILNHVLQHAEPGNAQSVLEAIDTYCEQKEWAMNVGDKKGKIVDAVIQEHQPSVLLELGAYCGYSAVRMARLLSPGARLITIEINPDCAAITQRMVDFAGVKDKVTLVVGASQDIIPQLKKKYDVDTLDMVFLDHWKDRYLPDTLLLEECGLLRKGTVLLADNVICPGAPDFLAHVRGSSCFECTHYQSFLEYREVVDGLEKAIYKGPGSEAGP
Test: COMT-Fluorescence Assay
Type: biochemical
Conditions: rec. human COMT 25 nM, 4-Nitrocatechol-Alexa488 200 nM, SAM 500 nM
Procedure: This intramolecular interaction is disturbed if the 4-Nitrocatechol is methylated. […] This increase of fluorescence intensity can be followed in a kinetic measurement. The slope in the linear range of the kinetic is calculated. An inhibitor compound decreases the slope.
Signal [rfu/min]=(rfu(end-point)−rfu(startpoint))/incubation_time_#2

[1] = COMT-fluorescence assay, read-out: IC50

Row | Compound | IC50 (IC50, COMT-fluorescence assay) | IC50 [1]
1 | O=c1[nH]cnc2c(O)cc(-c3ccc4c(c3)CNCC4)cc12 [Example 174, 8-Hydroxy-6-(1,2,3,4-tetrahydroisoquinolin-7-yl)quinazolin-4(3H)-one] | 70 nM | 
2 | Cc1cc(-c2cc(O)c3nc[nH]c(=O)c3c2)ccn1 [Example 134, 8-Hydroxy-6-(2-methylpyridin-4-yl)quinazolin-4(3H)-one] |  | 10 nM
3 | COCc1ccc(C(=O)N2CCN(C)CC2)cc1-c1cc(O)c2nc[nH]c(=O)c2c1 [Example 233, 8-Hydroxy-6-[2-methoxymethyl-5-(4-methyl-piperazine-1-carbonyl)-phenyl]-3H-quinazolin-4-one; compound with formic acid] |  | 1170 nM
4 | Cc1ccc(-c2cc(O)c3nc[nH]c(=O)c3c2)c(C)n1 [Example 202, 6-(2,6-Dimethyl-pyridin-3-yl)-8-hydroxy-3H-quinazolin-4-one] |  | 20 nM
5 | COc1ncc(-c2cc(O)c3nc[nH]c(=O)c3c2)c(OC)n1 [Example 160, 6-(2,4-Dimethoxypyrimidin-5-yl)-8-hydroxyquinazolin-4(3H)-one] |  | 80 nM
6 | O=C(NCC(F)(F)F)c1cc(O)c2nc[nH]c(=O)c2c1 [Example 5, 8-Hydroxy-4-oxo-N-(2,2,2-trifluoroethyl)-3,4-dihydroquinazoline-6-carboxamide] |  | 660 nM
7 | COc1ccc(C)cc1-c1cc(O)c2nc[nH]c(=O)c2c1 [Example 36, 8-Hydroxy-6-(2-methoxy-5-methylphenyl)quinazolin-4(3H)-one] |  | 80 nM
8 | CC(=O)Nc1ccccc1-c1cc(O)c2nc[nH]c(=O)c2c1 [Example 159, N-(2-(8-Hydroxy-4-oxo-3,4-dihydroquinazolin-6-yl)phenyl)acetamide] |  | 550 nM
9 | O=c1[nH]cnc2c(O)cc(-c3ccc(F)cc3)c(-c3ccncc3)c12 [Example 56, 6-(4-Fluorophenyl)-8-hydroxy-5-(pyridin-4-yl)quinazolin-4(3H)-one] |  | 10 nM
10 | COC(=O)C(C)c1ccc(-c2ccccc2)c(-c2cc(O)c3nc[nH]c(=O)c3c2)c1 (racemic) [Example 32, (rac.) Methyl 2-(2-(8-hydroxy-4-oxo-3,4-dihydroquinazolin-6-yl)biphenyl-4-yl)propanoate] |  | 2000 nM
11 | O=c1[nH]cnc2c(O)cc(-c3ccnc(N4CCNCC4)c3)cc12 [Example 185, 8-Hydroxy-6-(2-(piperazin-1-yl)pyridin-4-yl)quinazolin-4(3H)-one] |  | 20 nM
12 | O=c1[nH]cnc2c(O)cc(-c3ccccc3)cc12 [Example 128, 8-Hydroxy-6-phenylquinazolin-4(3H)-one] |  | 20 nM
13 | COCc1cc(C(=O)N(CCN(C(C)C)C(C)C)C(C)C)ccc1-c1cc(O)c2nc[nH]c(=O)c2c1 [Example 106, N-(2-(Diisopropylamino)ethyl)-4-(8-hydroxy-4-oxo-3,4-dihydroquinazolin-6-yl)-N-isopropyl-3-(methoxymethyl)benzamide 2,2,2-trifluoroacetate] |  | 20 nM
14 | O=c1[nH]cnc2c(O)c(F)c(-c3ccc(F)cc3)cc12 [Example 201, 7-Fluoro-6-(4-fluorophenyl)-8-hydroxyquinazolin-4(3H)-one] |  | 20 nM
15 | O=c1[nH]cnc2c(O)cc(-c3c(F)c(F)c(F)c(F)c3F)cc12 [Example 33, 8-Hydroxy-6-(perfluorophenyl)quinazolin-4(3H)-one] | 20 nM | 
16 | Cc1c(Br)cc2c(=O)[nH]cnc2c1O [Example 136, 6-Bromo-8-hydroxy-7-methylquinazolin-4(3H)-one] |  | 3210 nM
17 | CN(C)Cc1cccc(-c2cc(O)c3nc[nH]c(=O)c3c2)c1 [Example 229, 6-(3-Dimethylaminomethyl-phenyl)-8-hydroxy-3H-quinazolin-4-one] |  | 54 nM
18 | Cc1nc(C)c(-c2cc(O)c3nc[nH]c(=O)c3c2)s1 [Example 178, 6-(2,4-Dimethylthiazol-5-yl)-8-hydroxyquinazolin-4(3H)-one] |  | 10 nM

Row | Compound | IC50 (IC50, COMT-fluorescence assay) | IC50 [1]
19 | Cn1ccnc1-c1cc(O)c2nc[nH]c(=O)c2c1 [Example 73, 8-Hydroxy-6-(1-methyl-1H-imidazol-2-yl)quinazolin-4(3H)-one] |  | 40 nM
20 | CCOC(=O)c1cc(O)c2nc[nH]c(=O)c2c1 [Example 6, Ethyl 8-hydroxy-4-oxo-3,4-dihydroquinazoline-6-carboxylate] |  | 20 nM
21 | CC(=O)c1ccccc1-c1cc(O)c2nc[nH]c(=O)c2c1 [Example 112, 6-(2-Acetylphenyl)-8-hydroxyquinazolin-4(3H)-one] | 170 nM | 
22 | O=c1[nH]cnc2c(O)cc(C3CCCC3)cc12 [Example 18, 6-Cyclopentyl-8-hydroxyquinazolin-4(3H)-one] |  | 900 nM
23 | O=c1[nH]cnc2c(O)cc(-c3cccc4ccccc34)cc12 [Example 170, 8-Hydroxy-6-(naphthalen-1-yl)quinazolin-4(3H)-one] |  | 20 nM
24 | Cc1ccc(O)c2nc[nH]c(=O)c12 [Example 140, 8-Hydroxy-5-methylquinazolin-4(3H)-one] |  | 5040 nM
25 | O=c1[nH]cnc2c(O)cc(-c3cncc4ccccc34)cc12 [Example 168, 8-Hydroxy-6-(isoquinolin-4-yl)quinazolin-4(3H)-one] |  | 30 nM
26 | CS(=O)(=O)Cc1ccccc1-c1cc(O)c2nc[nH]c(=O)c2c1Cl [Example 119, 5-Chloro-8-hydroxy-6-(2-(methylsulfonylmethyl)phenyl)quinazolin-4(3H)-one] |  | 610 nM
27 | O=c1[nH]cnc2c(O)cc(-c3ccc(F)cc3F)cc12 [Example 133, 6-(2,4-Difluorophenyl)-8-hydroxyquinazolin-4(3H)-one] | 20 nM | 
28 | O=c1[nH]cnc2c(O)cc(C#Cc3ccccc3)cc12 [Example 23, 8-Hydroxy-6-(phenylethynyl)quinazolin-4(3H)-one] |  | 10 nM
29 | COCc1cccc(-c2cc(O)c3nc[nH]c(=O)c3c2)c1 [Example 71, 8-Hydroxy-6-(3-(methoxymethyl)phenyl)quinazolin-4(3H)-one] | 20 nM | 
30 | Cc1cnc(-c2cc(O)c3nc[nH]c(=O)c3c2)s1 [Example 72, 8-Hydroxy-6-(5-methylthiazol-2-yl)quinazolin-4(3H)-one] |  | 30 nM
31 | COCc1cc(COC(=O)N2CCN(C(C)C)CC2)ccc1-c1cc(O)c2nc[nH]c(=O)c2c1 [Example 109, 4-(8-Hydroxy-4-oxo-3,4-dihydroquinazolin-6-yl)-3-(methoxymethyl)benzyl 4-isopropylpiperazine-1-carboxylate bis(2,2,2-trifluoroacetate)] |  | 20 nM
32 | CCCCOc1ccccc1-c1cc(O)c2nc[nH]c(=O)c2c1 [Example 228, 6-(2-Butoxyphenyl)-8-hydroxyquinazolin-4(3H)-one] |  | 50 nM
33 | CCOc1cc(F)ccc1-c1cc(O)c2nc[nH]c(=O)c2c1 [Example 211, 6-(2-Ethoxy-4-fluorophenyl)-8-hydroxyquinazolin-4(3H)-one] |  | 70 nM
34 | COCc1cc(CN2CCN(C(C)C)CC2)ccc1-c1cc(O)c2nc[nH]c(=O)c2c1 [Example 107, 8-Hydroxy-6-(4-((4-isopropylpiperazin-1-yl)methyl)-2-(methoxymethyl)phenyl)quinazolin-4(3H)-one tetrakis(2,2,2-trifluoroacetate)] |  | 20 nM
35 | CS(=O)(=O)c1ccc(-c2cc(O)c3nc[nH]c(=O)c3c2)c(F)c1 [Example 158, 6-(2-Fluoro-4-(methylsulfonyl)phenyl)-8-hydroxyquinazolin-4(3H)-one] | 30 nM | 
36 | O=c1[nH]cnc2c(O)cc(I)cc12 [Example 137, 8-Hydroxy-6-iodo-3H-quinazolin-4-one] |  | 60 nM
